Values of other authors as cited in patent US12070503B2, “Transdermal carrier” (priority 2014, dated 2024).

Assays:
[1] = difficult to measure, considered generally
[2] = tested on: HSV-infected cells; conditions: compared with alternatives such as Abreva
[3] = tested on: hair follicles; conditions: concentrations of 2% and 5%; published studies

## C[C@H](CCC(=O)O)[C@H]1CC[C@H]2[C@@H]3CC[C@@H]4C[C@H](O)CC[C@]4(C)[C@H]3C[C@H](O)[C@]12C [DCA, deoxycholic acid]
[1]
  half-life: less than 30 minutes

## Nc1nc2c(ncn2CCC(CO)CO)c(=O)[nH]1 [Penciclovir, penciclovir]
[2]
  effectiveness against HSV-infected cells: more effective

## Nc1cc(N2CCCCC2)nc(N)[n+]1[O-] [minoxidil]
[3]
  treatment time before evidence of hair growth was demonstrated: > 8 months
